Reference: ChEMBL document CHEMBL1136688, “Synthesis and SAR of aminoalkoxy-biaryl-4-carboxamides: novel and selective histamine H3 receptor antagonists” (Bioorg Med Chem Lett, 2003)

Assays:
[1] = biological target: Sodium-dependent noradrenaline transporter (Homo sapiens, UniProt P23975); assay: Binding affinity towards human UPTK-NE transporter
[2] = Bioavailability after oral administration (2.5 mg/kg) in dog was determined; assay type: ADME, organism-based, Canis lupus familiaris; details: in vivo
[3] = Plasma clearance after oral administration (2.5 mg/kg) in monkey was determined; assay type: ADME, organism-based; details: cercopithecidae, read-out: Clp (converted)
Histamine H3 receptor [4] = biological target: T1, Histamine H3 receptor (Homo sapiens, UniProt Q9Y5N1); assay: Affinity to bind with human cloned H3 receptor using radioligand binding assay; details: read-out: pA2 (converted)
T1 sequence (Q9Y5N1 whole entry): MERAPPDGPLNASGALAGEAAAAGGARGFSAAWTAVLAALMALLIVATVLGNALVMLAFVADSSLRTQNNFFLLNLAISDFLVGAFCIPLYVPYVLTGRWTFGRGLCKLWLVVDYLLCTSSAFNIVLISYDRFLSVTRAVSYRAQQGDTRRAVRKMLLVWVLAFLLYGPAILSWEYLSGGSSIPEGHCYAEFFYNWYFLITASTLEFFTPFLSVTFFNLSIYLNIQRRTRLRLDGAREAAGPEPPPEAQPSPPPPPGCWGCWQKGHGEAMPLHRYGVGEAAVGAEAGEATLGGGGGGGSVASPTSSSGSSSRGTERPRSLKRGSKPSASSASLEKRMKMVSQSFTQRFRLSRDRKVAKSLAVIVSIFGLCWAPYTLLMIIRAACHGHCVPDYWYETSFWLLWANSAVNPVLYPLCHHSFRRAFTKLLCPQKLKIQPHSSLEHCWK

Histamine H2 receptor = Histamine H2 receptor (Homo sapiens, UniProt P25021); assay: Binding affinity towards human histaminergic (H2) receptor
Chain of Histamine H2 receptor (P25021 whole entry): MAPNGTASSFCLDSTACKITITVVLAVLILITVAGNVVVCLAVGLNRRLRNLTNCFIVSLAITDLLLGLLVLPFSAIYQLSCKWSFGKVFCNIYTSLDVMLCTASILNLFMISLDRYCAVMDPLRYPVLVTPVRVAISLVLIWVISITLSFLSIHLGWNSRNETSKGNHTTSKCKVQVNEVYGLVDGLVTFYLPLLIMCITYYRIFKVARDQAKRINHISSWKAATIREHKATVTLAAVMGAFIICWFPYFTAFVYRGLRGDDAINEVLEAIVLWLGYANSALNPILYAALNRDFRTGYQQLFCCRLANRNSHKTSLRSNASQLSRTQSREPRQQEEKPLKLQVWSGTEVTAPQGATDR

[5] = The peak plasma concentration after 5 hr administration (2.5 mg/kg) in monkey was determined; assay type: ADME, organism-based; design: dose 2.5 mg/kg; details: cercopithecidae
[6] = The peak blood concentration after 5 hr administration (2.5 mg/kg) in dog was determined; assay type: ADME, organism-based, Canis lupus familiaris; design: dose 2.5 mg/kg
[7] = biological target: T2, Muscarinic acetylcholine receptor M2 (Homo sapiens, UniProt P08172); assay: Binding affinity towards human muscarinic M2 receptor
T2 sequence (P08172 whole entry): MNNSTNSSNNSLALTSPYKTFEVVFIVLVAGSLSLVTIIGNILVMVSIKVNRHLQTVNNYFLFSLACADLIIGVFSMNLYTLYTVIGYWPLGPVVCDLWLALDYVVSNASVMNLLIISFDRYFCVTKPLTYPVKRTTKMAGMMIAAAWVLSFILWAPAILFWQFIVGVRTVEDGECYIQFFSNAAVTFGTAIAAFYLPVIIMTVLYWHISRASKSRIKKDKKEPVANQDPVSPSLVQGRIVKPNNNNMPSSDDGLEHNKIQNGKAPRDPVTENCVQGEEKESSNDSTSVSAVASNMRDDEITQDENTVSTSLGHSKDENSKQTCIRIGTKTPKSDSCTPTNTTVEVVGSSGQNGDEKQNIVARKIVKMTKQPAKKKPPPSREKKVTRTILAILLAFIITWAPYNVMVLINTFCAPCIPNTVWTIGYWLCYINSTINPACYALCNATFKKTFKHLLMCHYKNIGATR

Cavia porcellus = species on record: Cavia porcellus; assay: Compound was tested for blocked alpha-methylhistamine-induced inhibition of electrical field-stimulation induced twitch response in guinea pig ileum; assay type: functional; details: read-out: pA2 (converted)
[8] = Bioavailability after oral administration (2.5 mg/kg) in monkey was determined; assay type: ADME, organism-based; details: cercopithecidae, in vivo
Histamine H3 receptor [9] = biological target: T1, Histamine H3 receptor; assay: Binding affinity for human recombinant H3 receptor
Histamine H1 receptor = Histamine H1 receptor (Homo sapiens, UniProt P35367); assay: Binding affinity towards human histaminergic (H1) receptor
Chain of Histamine H1 receptor (P35367 whole entry): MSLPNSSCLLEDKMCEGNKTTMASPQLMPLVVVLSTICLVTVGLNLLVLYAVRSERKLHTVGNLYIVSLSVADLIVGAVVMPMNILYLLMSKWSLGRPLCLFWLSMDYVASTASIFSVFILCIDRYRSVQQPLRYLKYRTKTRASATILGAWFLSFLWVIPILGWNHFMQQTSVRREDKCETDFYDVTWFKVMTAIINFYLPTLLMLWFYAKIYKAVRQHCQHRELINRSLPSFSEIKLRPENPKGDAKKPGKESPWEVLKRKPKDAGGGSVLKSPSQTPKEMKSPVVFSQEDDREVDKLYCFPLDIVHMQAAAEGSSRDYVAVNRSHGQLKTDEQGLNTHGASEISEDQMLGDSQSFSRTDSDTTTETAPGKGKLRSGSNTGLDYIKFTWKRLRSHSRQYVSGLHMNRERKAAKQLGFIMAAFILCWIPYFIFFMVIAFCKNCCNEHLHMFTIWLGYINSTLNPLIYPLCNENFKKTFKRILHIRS

[10] = biological target: Muscarinic acetylcholine receptor M3 (Homo sapiens, UniProt P20309); assay: Binding affinity towards human muscarinic M3 receptor
Chain of Muscarinic acetylcholine receptor M3 (P20309 whole entry): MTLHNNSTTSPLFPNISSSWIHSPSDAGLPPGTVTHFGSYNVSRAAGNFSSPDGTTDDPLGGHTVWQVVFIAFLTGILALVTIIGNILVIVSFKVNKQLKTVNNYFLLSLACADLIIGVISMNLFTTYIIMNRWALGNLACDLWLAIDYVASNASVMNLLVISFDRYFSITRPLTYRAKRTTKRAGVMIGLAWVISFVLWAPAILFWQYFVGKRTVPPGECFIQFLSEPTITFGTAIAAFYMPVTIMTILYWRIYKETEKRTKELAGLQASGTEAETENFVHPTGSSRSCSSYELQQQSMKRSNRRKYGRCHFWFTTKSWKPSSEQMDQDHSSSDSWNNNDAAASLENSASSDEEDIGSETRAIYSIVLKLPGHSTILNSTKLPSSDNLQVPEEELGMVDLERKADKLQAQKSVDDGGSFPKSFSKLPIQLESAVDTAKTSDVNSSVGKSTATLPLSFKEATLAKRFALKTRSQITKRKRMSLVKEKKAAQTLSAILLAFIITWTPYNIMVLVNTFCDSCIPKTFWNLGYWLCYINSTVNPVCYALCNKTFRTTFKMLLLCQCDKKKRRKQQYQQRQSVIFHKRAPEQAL

[11] = Half life period after oral administration (2.5 mg/kg) in dog was determined; assay type: ADME, organism-based, Canis lupus familiaris; details: in vivo
[12] = Half life period after oral administration (2.5 mg/kg) in monkey was determined; assay type: ADME, organism-based; details: cercopithecidae, in vivo
[13] = biological target: T3, Muscarinic acetylcholine receptor M1 (Homo sapiens, UniProt P11229); assay: Binding affinity towards human muscarinic M1 receptor
T3 sequence (P11229 whole entry): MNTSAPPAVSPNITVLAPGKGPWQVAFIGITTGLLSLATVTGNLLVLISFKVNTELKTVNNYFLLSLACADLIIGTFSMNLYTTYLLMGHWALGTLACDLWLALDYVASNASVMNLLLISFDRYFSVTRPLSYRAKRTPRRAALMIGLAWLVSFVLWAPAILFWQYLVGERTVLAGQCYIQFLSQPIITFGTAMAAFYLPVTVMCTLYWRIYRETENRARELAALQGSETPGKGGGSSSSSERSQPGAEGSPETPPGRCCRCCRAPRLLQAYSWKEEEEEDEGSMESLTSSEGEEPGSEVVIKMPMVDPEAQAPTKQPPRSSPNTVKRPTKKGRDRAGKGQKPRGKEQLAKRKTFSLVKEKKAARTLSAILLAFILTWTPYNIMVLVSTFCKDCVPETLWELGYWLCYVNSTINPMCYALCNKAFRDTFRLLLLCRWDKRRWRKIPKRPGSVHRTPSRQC

[14] = Volume distribution after oral administration (2.5 mg/kg) in monkey was determined; assay type: ADME, organism-based; details: cercopithecidae, in vivo
[15] = biological target: Histamine H3 receptor (Rattus norvegicus) (UniProt Q9QYN8); details: Brain
Chain of Histamine H3 receptor (Rattus norvegicus) (Q9QYN8 whole entry): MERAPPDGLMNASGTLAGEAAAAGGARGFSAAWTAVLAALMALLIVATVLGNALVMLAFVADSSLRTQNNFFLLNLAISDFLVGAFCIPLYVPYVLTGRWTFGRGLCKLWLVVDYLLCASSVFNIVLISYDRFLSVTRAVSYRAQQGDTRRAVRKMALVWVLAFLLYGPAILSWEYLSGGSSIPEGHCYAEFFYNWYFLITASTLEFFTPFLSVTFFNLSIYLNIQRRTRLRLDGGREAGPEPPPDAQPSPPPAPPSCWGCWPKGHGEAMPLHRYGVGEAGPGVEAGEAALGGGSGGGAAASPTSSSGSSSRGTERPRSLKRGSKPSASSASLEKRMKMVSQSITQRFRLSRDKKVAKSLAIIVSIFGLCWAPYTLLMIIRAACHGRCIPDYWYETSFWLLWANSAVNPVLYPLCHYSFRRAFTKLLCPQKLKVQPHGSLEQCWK

[16] = biological target: Sodium-dependent serotonin transporter (Homo sapiens, UniProt P31645); assay: Binding affinity towards human UPTK-Serotonin transporter
Chain of Sodium-dependent serotonin transporter (P31645 whole entry): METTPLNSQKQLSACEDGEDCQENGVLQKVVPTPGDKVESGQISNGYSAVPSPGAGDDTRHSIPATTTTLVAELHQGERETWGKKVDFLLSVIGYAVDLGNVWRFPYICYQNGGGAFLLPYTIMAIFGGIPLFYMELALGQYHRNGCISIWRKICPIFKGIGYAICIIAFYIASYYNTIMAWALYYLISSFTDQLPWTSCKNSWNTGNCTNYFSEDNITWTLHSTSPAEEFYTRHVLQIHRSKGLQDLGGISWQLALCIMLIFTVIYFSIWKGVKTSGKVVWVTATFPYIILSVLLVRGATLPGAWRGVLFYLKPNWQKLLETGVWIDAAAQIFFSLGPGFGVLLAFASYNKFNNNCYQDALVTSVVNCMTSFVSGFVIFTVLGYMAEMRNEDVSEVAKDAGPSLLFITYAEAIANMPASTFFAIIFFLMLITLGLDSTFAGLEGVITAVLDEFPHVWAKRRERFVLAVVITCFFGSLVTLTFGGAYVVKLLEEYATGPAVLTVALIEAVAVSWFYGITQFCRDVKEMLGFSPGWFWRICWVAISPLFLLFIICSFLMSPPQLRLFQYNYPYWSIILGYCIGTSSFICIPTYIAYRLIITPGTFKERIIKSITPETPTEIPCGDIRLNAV

[17] = biological target: Sodium-dependent dopamine transporter (Homo sapiens, UniProt Q01959); assay: Binding affinity towards human UPTK-DA transporter
Chain of Sodium-dependent dopamine transporter (Q01959 whole entry): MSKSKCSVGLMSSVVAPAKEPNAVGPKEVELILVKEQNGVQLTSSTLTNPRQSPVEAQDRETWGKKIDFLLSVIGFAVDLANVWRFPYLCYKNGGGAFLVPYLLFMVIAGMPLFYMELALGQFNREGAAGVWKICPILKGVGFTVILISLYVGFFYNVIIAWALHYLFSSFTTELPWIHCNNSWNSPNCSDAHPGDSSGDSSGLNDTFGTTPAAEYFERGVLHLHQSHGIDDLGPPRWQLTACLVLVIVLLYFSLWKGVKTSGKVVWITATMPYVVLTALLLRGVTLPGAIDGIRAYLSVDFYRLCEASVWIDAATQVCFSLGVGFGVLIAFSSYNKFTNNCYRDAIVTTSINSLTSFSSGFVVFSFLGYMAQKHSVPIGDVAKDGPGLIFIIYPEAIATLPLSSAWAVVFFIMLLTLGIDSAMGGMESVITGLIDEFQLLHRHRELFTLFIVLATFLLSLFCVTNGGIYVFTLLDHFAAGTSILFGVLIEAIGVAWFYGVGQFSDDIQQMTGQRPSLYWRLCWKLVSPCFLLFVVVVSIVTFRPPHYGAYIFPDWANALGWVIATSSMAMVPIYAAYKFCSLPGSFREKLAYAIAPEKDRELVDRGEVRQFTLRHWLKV

Histamine H4 receptor = Histamine H4 receptor (Homo sapiens, UniProt Q9H3N8); assay: Binding affinity towards human histaminergic (H4) receptor
[18] = Plasma clearance after oral administration (2.5 mg/kg) in dog was determined; assay type: ADME, organism-based, Canis lupus familiaris; details: read-out: Clp (converted)
D(4) dopamine receptor = biological target: T4, D(4) dopamine receptor (Homo sapiens, UniProt P21917); assay: Binding affinity towards human D4.2 receptor
T4 sequence (P21917 whole entry): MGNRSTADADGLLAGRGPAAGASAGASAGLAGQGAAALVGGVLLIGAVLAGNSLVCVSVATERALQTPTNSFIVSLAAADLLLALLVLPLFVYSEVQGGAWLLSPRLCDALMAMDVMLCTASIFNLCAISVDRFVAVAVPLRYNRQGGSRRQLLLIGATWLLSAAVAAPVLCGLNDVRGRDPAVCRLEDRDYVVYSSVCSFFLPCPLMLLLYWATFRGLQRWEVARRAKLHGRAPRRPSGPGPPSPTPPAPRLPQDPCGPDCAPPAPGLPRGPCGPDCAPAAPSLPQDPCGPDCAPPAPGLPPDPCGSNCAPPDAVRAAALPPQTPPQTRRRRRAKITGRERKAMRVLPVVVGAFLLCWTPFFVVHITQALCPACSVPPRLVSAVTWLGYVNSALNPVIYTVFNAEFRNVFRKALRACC

[19] = biological target: T5, Alpha-2C adrenergic receptor (Homo sapiens, UniProt P18825); assay: Binding affinity towards human Alpha-2C adrenergic receptor
T5 sequence (P18825 whole entry): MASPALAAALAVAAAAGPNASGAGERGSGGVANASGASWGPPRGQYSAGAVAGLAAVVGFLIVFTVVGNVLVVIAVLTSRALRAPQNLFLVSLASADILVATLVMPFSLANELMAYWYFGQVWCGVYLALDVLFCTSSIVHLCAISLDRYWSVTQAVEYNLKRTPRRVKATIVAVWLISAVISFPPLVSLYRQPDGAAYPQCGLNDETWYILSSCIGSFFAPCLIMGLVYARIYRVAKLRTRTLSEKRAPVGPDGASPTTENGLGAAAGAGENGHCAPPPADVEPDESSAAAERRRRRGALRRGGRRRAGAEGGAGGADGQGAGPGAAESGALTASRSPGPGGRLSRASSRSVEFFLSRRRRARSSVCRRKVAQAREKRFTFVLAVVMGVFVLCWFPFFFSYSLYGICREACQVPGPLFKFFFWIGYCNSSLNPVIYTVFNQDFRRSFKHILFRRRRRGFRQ

Chain of Sodium-dependent noradrenaline transporter (P23975 whole entry): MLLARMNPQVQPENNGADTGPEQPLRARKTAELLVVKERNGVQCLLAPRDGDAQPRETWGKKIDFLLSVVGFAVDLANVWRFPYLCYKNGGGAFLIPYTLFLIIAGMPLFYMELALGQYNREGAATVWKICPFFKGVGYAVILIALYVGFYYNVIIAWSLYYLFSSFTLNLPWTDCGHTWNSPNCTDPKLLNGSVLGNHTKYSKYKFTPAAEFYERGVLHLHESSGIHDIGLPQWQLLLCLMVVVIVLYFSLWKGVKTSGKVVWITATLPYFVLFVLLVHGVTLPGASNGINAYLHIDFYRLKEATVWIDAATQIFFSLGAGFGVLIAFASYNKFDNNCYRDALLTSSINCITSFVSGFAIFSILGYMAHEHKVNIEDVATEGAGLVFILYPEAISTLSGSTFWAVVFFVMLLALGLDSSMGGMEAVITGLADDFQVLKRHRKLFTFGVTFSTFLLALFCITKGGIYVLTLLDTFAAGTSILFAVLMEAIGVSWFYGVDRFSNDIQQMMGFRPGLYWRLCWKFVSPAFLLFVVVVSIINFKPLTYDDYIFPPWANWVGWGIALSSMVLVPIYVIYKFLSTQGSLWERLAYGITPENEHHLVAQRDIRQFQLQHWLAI

Ki [1]: 9.77 µM | bioavailability [2]: 33% | CL/F [3]: 16.7 mL/min/kg | Kb (Histamine H3 receptor [4]): 0.00214 µM | Ki (Histamine H2 receptor): 10 µM | Cmax [5]: 170 ng/mL | Cmax [6]: 310 ng/mL | Ki [7]: 0.933 µM | bioavailability [8]: 78% | Ki (Histamine H3 receptor [9]): 0.00049 µM | Ki (Histamine H1 receptor): 2.34 µM | Ki [10]: 1.66 µM | half-life [11]: 2.6 h | half-life [12]: 5.3 h | Ki [13]: 1.62 µM | Vbeta [14]: 7.5 L/kg | pKb [15]: 9.23 | Ki [16]: 3.55 µM | Ki [17]: 4.9 µM | Ki (Histamine H4 receptor): 10 µM | CL/F [18]: 10 mL/min/kg | Ki (D(4) dopamine receptor): 9.77 µM | Ki [19]: 1.62 µM
SMILES: C[C@H]1CC[C@H](C)N1CCCOc1ccc(-c2ccc(C(=O)N3CCOCC3)cc2)cc1 [A-349,821]
Kb (Cavia porcellus): 0.000339 µM
